Data on twelve compounds can be found in article PMC7531004, “Discovery of gramicidin A analogues with altered activities by multidimensional screening of a one-bead-one-compound library” (Nature Communications, 2020).

A short description of data set [1]: H+/Na+ transport assay of bead-derived peptides (one-point).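 Further: relative to parent gramicidin A activity set to 1.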 It counts as biochemical. On the set-up: key: relative activity; mean of two control wells = 1.00. To be noted: bead-derived peptide solution, EYPC/EYPG LUVs. The method in brief: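 Miniaturized 96-well format. LUVs with entrapped pyranine (1.0 mM) were exposed to peptide for 30 min at RT. Intensities were expressed relative to full lysis by Triton X-100 and no treatment, with control-well mean = 1.00.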

Data set [2] has as its system Streptococcus pyogenes SSI-9. As to the kind of experiment: Antibacterial activity assay of bead-derived peptides (three concentrations). Type of data set: cell-based. As to conditions: S. pyogenes, bead-derived peptide solution, three concentrations. On the set-up: key: +++: inhibition by the 640-fold diluted peptide solution; ++: inhibition by the 160-fold diluted solution; +: inhibition by the 40-fold diluted solution; -: no inhibition. The method in brief: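 Undiluted, 4-fold and 16-fold DMSO-diluted peptide stocks; S. pyogenes SSI-9, 2 × 10^5 CFU, cation-adjusted MHB (50 mg/L Ca2+, 25 mg/L Mg2+) + 5% laked horse blood; 37 °C, 18 h; readout = cell pellet visible or not.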

In data set [3] the test system is P388 mouse leukemia cells. To be noted: 92 h. The essentials: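 P388 cells at 1 × 10^4 cells/mL (final) were exposed to library peptides (stocks diluted 250-fold in RPMI1640/10% FBS) for 92 h at 37 °C, 5% CO2. Viable cells were counted by WST-1/1-methoxy PMS (4 h), absorbance 415 nm, and expressed as cell viability (%).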

Where a SMILES comes first, the peptide text is derived from it. [ ]: non-standard residue; d: D form. The star is where a group is joined. NHCH2CH2OH = OCCN*; For = O=C*

Regarding `CC(C)C[C@@H](NC(=O)[C@H](C)NC(=O)[C@H](NC(=O)[C@H](C)NC(=O)CNC(=O)[C@@H](NC=O)C(C)C)C(C)C)C(=O)N[C@H](C(=O)N[C@@H](C(=O)N[C@@H](Cc1c[nH]c2ccccc12)C(=O)N[C@@H](C(=O)N[C@@H](Cc1c[nH]c2ccccc12)C(=O)N[C@H](CC(C)C)C(=O)N[C@@H](Cc1c[nH]c2ccccc12)C(=O)N[C@H](CC(C)C)C(=O)N[C@@H](Cc1c[nH]c2ccccc12)C(=O)NCCO)C(C)C)[C@H](C)O)C(C)C` [compound 11433] (For-VGA[dV]A[dL]V[dT]W[dV]W[dL]W[dL]W-NHCH2CH2OH), the “H+/Na+ transport activity normalized against the value of 1 (1.00)” value (“H+/Na+ transport activity normalized” for short) in data set [1] stood at 1.38. The antibacterial activity result in data set [2] is “-”. For the same compound, the cell viability/% in data set [3] is on record as 51.1%.
The matching figures for `CC(C)C[C@@H](NC(=O)[C@H](Cc1c[nH]c2ccccc12)NC(=O)[C@H](NC(=O)[C@H](Cc1c[nH]c2ccccc12)NC(=O)[C@@H](CC(C)C)NC(=O)[C@@H](NC(=O)[C@H](NC(=O)[C@H](C)NC(=O)[C@H](NC(=O)[C@H](C)NC(=O)CNC(=O)[C@@H](NC=O)C(C)C)[C@H](C)O)C(C)C)C(C)C)C(C)C)C(=O)N[C@@H](Cc1c[nH]c2ccccc12)C(=O)N[C@@H](C(=O)N[C@@H](Cc1c[nH]c2ccccc12)C(=O)NCCO)C(C)C` [compound 4187] (For-VGA[dT]A[dV]V[dL]W[dV]W[dL]W[dV]W-NHCH2CH2OH): 1.32, “-” and 95.1%.
For the compound `CC(C)C[C@@H](NC(=O)[C@H](C)NC(=O)[C@H](NC(=O)[C@H](C)NC(=O)CNC(=O)[C@@H](NC=O)C(C)C)C(C)C)C(=O)N[C@H](C(=O)N[C@@H](C(=O)N[C@@H](Cc1c[nH]c2ccccc12)C(=O)N[C@H](CC(C)C)C(=O)N[C@@H](Cc1c[nH]c2ccccc12)C(=O)N[C@@H](C(=O)N[C@@H](Cc1c[nH]c2ccccc12)C(=O)N[C@@H](C(=O)N[C@@H](Cc1c[nH]c2ccccc12)C(=O)NCCO)C(C)C)C(C)C)[C@H](C)O)C(C)C` [compound 3375] (For-VGA[dV]A[dL]V[dT]W[dL]W[dV]W[dV]W-NHCH2CH2OH), the “H+/Na+ transport activity normalized” value in data set [1] is listed as 1.29. The antibacterial activity entry in data set [2] is listed as “-”. This compound also yielded a cell viability/% in data set [3] of 100.0%.
The corresponding values for `CC(C)C[C@@H](NC(=O)[C@H](C)NC(=O)CNC(=O)[C@@H](NC=O)C(C)C)C(=O)N[C@@H](C)C(=O)N[C@@H](C(=O)N[C@H](C(=O)N[C@@H](C(=O)N[C@@H](Cc1c[nH]c2ccccc12)C(=O)N[C@@H](C(=O)N[C@@H](Cc1c[nH]c2ccccc12)C(=O)N[C@H](CC(C)C)C(=O)N[C@@H](Cc1c[nH]c2ccccc12)C(=O)N[C@H](CC(C)C)C(=O)N[C@@H](Cc1c[nH]c2ccccc12)C(=O)NCCO)C(C)C)[C@H](C)O)C(C)C)C(C)C` [compound 6225] (For-VGA[dL]A[dV]V[dT]W[dV]W[dL]W[dL]W-NHCH2CH2OH) are 1.10, “-” and 80.8%.
The matching figures for `CC(C)C[C@@H](NC(=O)[C@H](Cc1c[nH]c2ccccc12)NC(=O)[C@H](NC(=O)[C@H](Cc1c[nH]c2ccccc12)NC(=O)[C@@H](CC(C)C)NC(=O)[C@H](Cc1c[nH]c2ccccc12)NC(=O)[C@@H](CC(C)C)NC(=O)[C@@H](NC(=O)[C@H](NC(=O)[C@H](C)NC(=O)[C@H](NC(=O)[C@H](C)NC(=O)CNC(=O)[C@@H](NC=O)C(C)C)C(C)C)C(C)C)C(C)C)[C@H](C)O)C(=O)N[C@@H](Cc1c[nH]c2ccccc12)C(=O)NCCO` [compound 457] (For-VGA[dV]A[dV]V[dL]W[dL]W[dT]W[dL]W-NHCH2CH2OH): 1.08, “+” and 95.8%.
Take `CC(C)C[C@@H](NC(=O)[C@H](C)NC(=O)[C@H](NC(=O)[C@H](C)NC(=O)CNC(=O)[C@@H](NC=O)C(C)C)C(C)C)C(=O)N[C@H](C(=O)N[C@@H](C(=O)N[C@@H](Cc1c[nH]c2ccccc12)C(=O)N[C@H](CC(C)C)C(=O)N[C@@H](Cc1c[nH]c2ccccc12)C(=O)N[C@@H](C(=O)N[C@@H](Cc1c[nH]c2ccccc12)C(=O)N[C@@H](C(=O)N[C@@H](Cc1c[nH]c2ccccc12)C(=O)NCCO)C(C)C)C(C)C)C(C)C)C(C)C` [compound 8697] (For-VGA[dV]A[dL]V[dV]W[dL]W[dV]W[dV]W-NHCH2CH2OH): in data set [1], the “H+/Na+ transport activity normalized” value is 1.04. In addition, in data set [2], the antibacterial activity entry is recorded as “+”. Further, the cell viability/% in data set [3] worked out at 100.0%.
Regarding `CC(C)C[C@@H](NC(=O)[C@H](C)NC(=O)[C@H](NC(=O)[C@H](C)NC(=O)CNC(=O)[C@@H](NC=O)C(C)C)C(C)C)C(=O)N[C@H](C(=O)N[C@@H](C(=O)N[C@@H](Cc1c[nH]c2ccccc12)C(=O)N[C@H](CC(C)C)C(=O)N[C@@H](Cc1c[nH]c2ccccc12)C(=O)N[C@@H](C(=O)N[C@@H](Cc1c[nH]c2ccccc12)C(=O)N[C@H](CC(C)C)C(=O)N[C@@H](Cc1c[nH]c2ccccc12)C(=O)NCCO)C(C)C)C(C)C)C(C)C` [compound 7146] (For-VGA[dV]A[dL]V[dV]W[dL]W[dV]W[dL]W-NHCH2CH2OH), the “H+/Na+ transport activity normalized” value in data set [1] was determined as 1.17. For the same compound, the antibacterial activity result in data set [2] is “+”. The compound also came in with a cell viability/% in data set [3] of 100.0%.
With `CC(C)C[C@@H](NC(=O)[C@H](C)NC(=O)[C@H](NC(=O)[C@H](C)NC(=O)CNC(=O)[C@@H](NC=O)C(C)C)C(C)C)C(=O)N[C@H](C(=O)N[C@H](CC(C)C)C(=O)N[C@@H](Cc1c[nH]c2ccccc12)C(=O)N[C@@H](C(=O)N[C@@H](Cc1c[nH]c2ccccc12)C(=O)N[C@H](CC(C)C)C(=O)N[C@@H](Cc1c[nH]c2ccccc12)C(=O)N[C@H](CC(C)C)C(=O)N[C@@H](Cc1c[nH]c2ccccc12)C(=O)NCCO)C(C)C)C(C)C` [compound 5699] (For-VGA[dV]A[dL]V[dL]W[dV]W[dL]W[dL]W-NHCH2CH2OH), in data set [1], the “H+/Na+ transport activity normalized” value is recorded as 1.05. For the same compound, the antibacterial activity entry in data set [2] was “+”. Moreover, in data set [3], the cell viability/% is listed as 36.7%.
For `CNC(=O)C[C@@H](NC(=O)[C@H](Cc1c[nH]c2ccccc12)NC(=O)[C@@H](CC(C)C)NC(=O)[C@H](Cc1c[nH]c2ccccc12)NC(=O)[C@H](NC(=O)[C@H](Cc1c[nH]c2ccccc12)NC(=O)[C@@H](CC(C)C)NC(=O)[C@@H](NC(=O)[C@H](NC(=O)[C@H](C)NC(=O)[C@H](NC(=O)[C@H](C)NC(=O)CNC(=O)[C@@H](NC=O)C(C)C)C(C)C)C(C)C)C(C)C)C(C)C)C(=O)N[C@@H](Cc1c[nH]c2ccccc12)C(=O)NCCO` [compound 2526] (For-VGA[dV]A[dV]V[dL]W[dV]W[dL]W[dD](NHMe)W-NHCH2CH2OH), in data set [1], the “H+/Na+ transport activity normalized” value turned out to be 1.02. For the same compound, the antibacterial activity entry in data set [2] is on record as “-”. The compound also displayed a cell viability/% in data set [3] of 100.0%.
The corresponding values for `CC(C)C[C@@H](NC(=O)[C@H](C)NC(=O)CNC(=O)[C@@H](NC=O)C(C)C)C(=O)N[C@@H](C)C(=O)N[C@@H](C(=O)N[C@H](C(=O)N[C@H](CC(C)C)C(=O)N[C@@H](Cc1c[nH]c2ccccc12)C(=O)N[C@@H](C(=O)N[C@@H](Cc1c[nH]c2ccccc12)C(=O)N[C@H](CC(C)C)C(=O)N[C@@H](Cc1c[nH]c2ccccc12)C(=O)N[C@@H](C(=O)N[C@@H](Cc1c[nH]c2ccccc12)C(=O)NCCO)C(C)C)C(C)C)C(C)C)C(C)C` [compound 3633] (For-VGA[dL]A[dV]V[dL]W[dV]W[dL]W[dV]W-NHCH2CH2OH) are 1.04, “-” and 1.7%.
On to `CC(C)C[C@@H](NC(=O)[C@H](Cc1c[nH]c2ccccc12)NC(=O)[C@H](NC(=O)[C@H](Cc1c[nH]c2ccccc12)NC(=O)[C@@H](CC(C)C)NC(=O)[C@H](Cc1c[nH]c2ccccc12)NC(=O)[C@H](NC(=O)[C@@H](NC(=O)[C@H](NC(=O)[C@H](C)NC(=O)[C@H](NC(=O)[C@H](C)NC(=O)CNC(=O)[C@@H](NC=O)C(C)C)C(C)C)C(C)C)C(C)C)[C@H](C)O)C(C)C)C(=O)N[C@@H](Cc1c[nH]c2ccccc12)C(=O)NCCO` [compound 7702] (For-VGA[dV]A[dV]V[dT]W[dL]W[dV]W[dL]W-NHCH2CH2OH), for which the “H+/Na+ transport activity normalized” value in data set [1] was determined as 1.01. Besides, the antibacterial activity entry in data set [2] is on record as “-”. In data set [3], the cell viability/% amounted to 100.0%.
`CC(C)C[C@@H](NC(=O)[C@H](Cc1c[nH]c2ccccc12)NC(=O)[C@H](NC(=O)[C@H](Cc1c[nH]c2ccccc12)NC(=O)[C@H](NC(=O)[C@@H](NC(=O)[C@H](NC(=O)[C@H](C)NC(=O)[C@H](NC(=O)[C@H](C)NC(=O)CNC(=O)[C@@H](NC=O)C(C)C)C(C)C)C(C)C)C(C)C)C(C)C)C(C)C)C(=O)N[C@@H](Cc1c[nH]c2ccccc12)C(=O)N[C@@H](C(=O)N[C@@H](Cc1c[nH]c2ccccc12)C(=O)NCCO)C(C)C` [compound 6165] (For-VGA[dV]A[dV]V[dV]W[dV]W[dL]W[dV]W-NHCH2CH2OH): the “H+/Na+ transport activity normalized” value in data set [1] is 1.07. Further, the antibacterial activity result in data set [2] is “-”. In data set [3], the cell viability/% amounted to 67.9%.
